Measurements published in paper PMC10214751, “Poaceae‐specific β‐1,3;1,4‐D‐glucans link jasmonate signalling to OsLecRK1‐mediated defence response during rice‐brown planthopper interactions” (Plant Biotechnology Journal, 2023).

Target: T1, OsLecRK1 (MBP-OsLecRK1-His) (Oryza sativa, UniProt Q7FAZ3)
T1 construct: gene LECRK1; recombinant MBP-OsLecRK1-His fusion, purified; MBP and His tags kept; RED-NHS labelled
T1 sequence (Q7FAZ3 20-813 limits assumed): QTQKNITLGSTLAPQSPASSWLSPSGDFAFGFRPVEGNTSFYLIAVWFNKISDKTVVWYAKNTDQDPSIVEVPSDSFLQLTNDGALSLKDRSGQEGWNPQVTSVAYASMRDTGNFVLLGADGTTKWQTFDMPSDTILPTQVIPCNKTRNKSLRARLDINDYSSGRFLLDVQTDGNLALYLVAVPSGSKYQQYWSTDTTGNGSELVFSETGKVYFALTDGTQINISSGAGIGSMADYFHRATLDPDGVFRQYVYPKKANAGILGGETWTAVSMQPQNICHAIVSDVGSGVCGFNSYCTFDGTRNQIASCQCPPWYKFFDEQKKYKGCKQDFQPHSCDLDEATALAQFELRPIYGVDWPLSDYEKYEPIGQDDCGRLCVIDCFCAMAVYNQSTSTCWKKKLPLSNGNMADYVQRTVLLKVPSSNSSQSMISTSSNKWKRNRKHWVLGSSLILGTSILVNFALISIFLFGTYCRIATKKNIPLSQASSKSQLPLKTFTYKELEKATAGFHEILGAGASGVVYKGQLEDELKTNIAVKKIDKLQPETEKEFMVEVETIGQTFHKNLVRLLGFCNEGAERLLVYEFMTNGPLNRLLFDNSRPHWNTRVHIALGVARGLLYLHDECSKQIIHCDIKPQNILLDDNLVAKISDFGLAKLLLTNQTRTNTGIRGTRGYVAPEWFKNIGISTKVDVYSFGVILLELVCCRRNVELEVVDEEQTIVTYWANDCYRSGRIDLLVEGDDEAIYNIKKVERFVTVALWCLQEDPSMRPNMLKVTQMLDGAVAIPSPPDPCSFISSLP
Test: microscale thermophoresis, RED-NHS labelled protein
Assay type: binding
Details: labelled protein in NHS buffer pH 8.2 (130 mM NaHCO3, 50 mM NaCl); ligand 1.5 nM to 50 μM
From the text: microscale thermophoresis, RED-NHS labelled protein on OsLecRK1 (MBP-OsLecRK1-His) | MBP‐OsLecRK1‐His recombinant protein bound BGTRIA, BGTRIB, BGTETB, and BGTETC with high affinities

Kd [nM]	SMILES
340	OC[C@H]1O[C@@H](O[C@@H]2[C@@H](O)[C@H](O[C@H]3[C@H](O)[C@@H](O)C(O)O[C@@H]3CO)O[C@H](CO)[C@H]2O)[C@H](O)[C@@H](O)[C@@H]1O (stereo partly drawn) [BGTRIA, 3^2‐β‐D‐glucosyl‐cellobiose]
600	OC[C@H]1O[C@@H](O[C@H]2[C@H](O)[C@@H](O)[C@H](O[C@H]3[C@H](O)[C@@H](CO)OC(O)[C@@H]3O)O[C@@H]2CO)[C@H](O)[C@@H](O)[C@@H]1O (stereo partly drawn) [BGTRIB, 3^1‐β‐D‐cellobiosyl‐glucose]
